Measurements taken from patent publication US20110015267A1 (priority 2009, published 2011).
Entries after “also recorded” stand apart in the source; their conditions may differ. Where a name gives a salt, the structure may show the parent alone.

Tests used:
[1] = Conventional valproates combined with L-carnitine inner salt in water; format: physicochemical; details: for Result When Combined With L-Carnitine Inner Salt in Water: dissolution / stability behaviour of the valproate in water
Source text: The inventor investigated methods for the preparation of long-needed, palatable liquid compositions having quantitatively precise defined proportions of valproate and L-carnitine in water. […] Instead, oily droplets of valproic acid adhered to the formulation vessel, making it impossible to formulate compositions having quantitatively precise defined proportions of valproate. […] This lack of purity renders it impossible to weigh calculated quantities of the magnesium valproate of '850 that are required for a quantitatively precise defined formulation and formulate a composition having the corresponding quantitatively precise defined proportions of valproate and L-carnitine; the weighed quantities of the magnesium valproate of '850 will contain variable proportions of impurities that are water-soluble, partially water-soluble, and water-insoluble as well as the magnesium valproate, and the resulting formulation will contain less than quantitatively precise proportions of valproate. […] Potassium valproate, cesium valproate, and rubidium valproate were not tested, because high concentrations of potassium, cesium, and rubidium are toxic.

[2] = Method B: incremental addition of magnesium valproate salt to L-carnitine inner salt solution
[3] = Solubility limit of magnesium valproate salts in purified water USP (incremental addition)
Protocol: The experiment was repeated but valproate was added as L-carnitine magnesium valproate. Incremental portions of L-carnitine magnesium valproate were added to purified water until the solubility limit was reached, as indicated by the presence of white solid in the colorless aqueous supernatant. […] The solution was divided into portions, and known masses of L-carnitine inner salt, accurately weighed, were added to provide solutions having the compositions shown in Table 2. Each solution was tested by two analysts.

[4] = Sterilization of liquid dosage form by heating or filtration; format: physicochemical
Source text: Therefore, aqueous solutions of the invention must be prepared to be free of microbial contaminants. Most preferably, water that has been purified to meet US Pharmacopeial standards is used in preparing aqueous solutions of the invention. [U.S. Pharmacopeia, Volume 32. U.S. Pharmacopeial Convention, Rockville, Md. USP Monograph entitled “Purified Water” and chapter entitled “Water for Pharmaceutical Purposes”<1231>.] Water can be purified in known ways to be free of trace contaminants and microbes that cause undesirable side reactions when administered therapeutically to a subject. However, L-carnitine decomposes when subjected to heating. Therefore, the inventor has used aseptic processing and sterilization by filtration through a filter having a pore-size sufficiently small to allow passage of the composition of the invention through the pores but prevent passage of microbes to prepare compositions for pharmaceutical use.
A palatable liquid dosage form of the invention is divided into portions. Each portion is subjected to sterilization by (a) heating or (b) filtration through a filter membrane having a […] pore size.

[5] = cited from earlier work
[6] = cited from earlier work; remark: listed apart in the source
[7] = reported; not tested by the inventor; cited from earlier work
[8] = with about 1,000 mg/mL L-carnitine

## CCCC(CCC)C(=O)O [Divalproex sodium]
[1]
  Result When Combined With L-Carnitine Inner Salt in Water: decomposed on addition to water

## CCCC(CCC)C(=O)[O-].CCCC(CCC)C(=O)[O-].C[N+](C)(C)C[C@H](O)CC(=O)[O-].[Mg+2] [L-carnitine magnesium valproate, L-Carnitine magnesium valproate]
[2]; in aqueous L-carnitine inner salt, about 1,000 mg/mL L-carnitine
  valproate concentration at the limit of solubility: about 150 mg/mL
[2]; [8]
  appearance of solution at the limit of solubility: clear and colorless
  odor of solution at the limit of solubility: no odor
  pH of solution: near neutral
  taste of solution at the limit of solubility: no taste
[3]
  solubility limit, valproate concentration of the solution: about 150 mg/mL

## C[N+](C)(C)CC(O)CC(=O)[O-] [L-carnitine, L-Carnitine inner salt]
[4]
  stability when subjected to heating: decomposes

## CCCC(CCC)C(=O)[O-].[Na+] [Sodium valproate]
[1]
  Result When Combined With L-Carnitine Inner Salt in Water: solution appearance: weighing. Solution was clear &
  Result When Combined With L-Carnitine Inner Salt in Water: rapidly adsorbed water from the atmosphere; also recorded: Sodium valproate is hygroscopic

## CCCC(CCC)C(=O)O [Valproic acid, 2-propylpentanoic acid]
[5]
  solubility in water: very slightly soluble in water
[1]; listed as valproic acid
  Result When Combined With L-Carnitine Inner Salt in Water: poorly soluble in water

## CCCC(CCC)C(=O)O [valproate]
[6]; all conventional dosage forms
  absorption from the gastrointestinal tract: rapidly and nearly completely absorbed
  time of peak plasma concentrations after ingestion: 1 to 4 h
[6]; humans and other mammals
  excreted in the urine as an L-carnitine ester: 3%
  metabolized by β- and ω-oxidations in mitochondria and the cytosol: 17%
  metabolized in the liver by direct glucuronidation: 80%

## Calcium valproate
[7]
  carcinogenicity: been reported to be carcinogenic.

## Magnesium valproate
[1]
  Result When Combined With L-Carnitine Inner Salt in Water: did not dissolve completely in water; also recorded: failed to dissolve completely;

## Magnesium valproate hydrate
[2]; [8]
  pH of solution: near neutral
